Laboratory results from US5789403A, “Substituted thiazolo [3,2-a]azepine derivatives” (Eisai Co., Ltd., priority 1994, dated 1998).

Experiments:
[1] = biological target: T1, NEP (neutral endpeptidase) (Rattus norvegicus, UniProt P07861); assay: NEP inhibiting activity with rat kidney cortex membrane fraction; format: biochemical; conditions: substrate Benzoyl-Gly-Arg-Arg-2-naphthylamide, 540 nm
T1 construct: membrane fraction prepared from the kidney cortex of rat; from tissue; host or cells: rat kidney cortex membrane fraction
T1 sequence (P07861 1-750): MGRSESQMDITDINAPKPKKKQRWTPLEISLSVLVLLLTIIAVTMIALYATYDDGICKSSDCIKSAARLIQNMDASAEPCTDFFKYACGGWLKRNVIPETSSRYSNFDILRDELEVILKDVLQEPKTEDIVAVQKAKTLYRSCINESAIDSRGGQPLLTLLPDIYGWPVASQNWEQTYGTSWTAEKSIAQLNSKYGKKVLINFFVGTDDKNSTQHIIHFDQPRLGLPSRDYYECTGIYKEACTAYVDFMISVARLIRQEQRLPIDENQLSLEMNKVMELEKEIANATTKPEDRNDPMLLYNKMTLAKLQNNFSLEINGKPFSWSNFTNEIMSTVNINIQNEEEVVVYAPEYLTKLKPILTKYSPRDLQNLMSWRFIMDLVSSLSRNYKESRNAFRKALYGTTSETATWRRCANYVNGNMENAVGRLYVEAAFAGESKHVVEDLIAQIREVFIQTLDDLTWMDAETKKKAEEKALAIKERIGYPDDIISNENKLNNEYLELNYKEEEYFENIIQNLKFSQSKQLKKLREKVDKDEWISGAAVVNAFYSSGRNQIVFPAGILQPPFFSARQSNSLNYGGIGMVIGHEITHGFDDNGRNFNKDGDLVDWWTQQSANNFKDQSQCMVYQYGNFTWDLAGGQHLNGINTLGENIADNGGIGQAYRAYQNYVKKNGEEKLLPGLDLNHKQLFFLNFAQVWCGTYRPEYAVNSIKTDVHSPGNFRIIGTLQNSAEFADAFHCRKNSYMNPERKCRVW
Protocol: Determination of NEP inhibiting activities of medicaments with rat kidney cortex
NEP activity was determined with the membrane fraction prepared from the kidney cortex of rat according to the process of Booth and Kenny (A Rapid Method for the Purification of Microvilli from Rabbit Kidney., Andrew G. Booth and A. John Kenny, Biochem J., 1974, 142, 575-581).
The NEP activity was determined according to the process of Orlowsky and Wilk (Purification and Specificity of a Membrane-Bound Metalloendpeptidase from Bovine Pituitaries., Marian Orlowsky and Shrwin Wilk, Biochemistry, 1981, 20, 4942-4950.) by the following method.
Benzoyl-glycyl-arginyl-arginyl-2-naphthylamide (Benzoyl-Gly-Arg-Arg-2-napththylamide (Nova Biochem, Switzerland)) was used as substrate. The naphthylamine liberated in the presence of the NEP enzyme sample and excess of leucine aminopeptidase (Sigma Chemical Co., U.S.A.) was color-developed with […] (Sigma Chemical Co., U.S.A.) and the absorbance at a wavelength of 540 nm was determined.
The NEP inhibiting activity was determined by adding the test compound to the above experiment system in final concentrations of 1, 3, 10, 30, 100, 300 and 1000 nM to form an inhibition curve and determining the concentration at which 50% of the activity was inhibited as IC50. [4S-(4α,7α(R*), 12bβ]]-7-[(1-oxo-2(S)-thio-3-phenylpropyl)amino]-1,2,3,4,6,7,8,12b-octahydro-6-oxopyrido[2,1-a] [2] benzazepine-4-carboxylic acid (which is a compound disclosed in Japanese Patent Publication-A No. 4-282382) was used as the control compound.

[2] = biological target: T2, ACE (angiotensin I converting enzyme) (Rattus norvegicus, UniProt P47820); assay: ACE inhibiting activity with rat lung membrane fraction; format: biochemical; conditions: substrate Hippuryl-His-Leu, borate buffer pH 8.3, 228 nm
T2 construct: membrane fraction prepared from the lung of rat; from tissue; host or cells: rat lung membrane fraction
T2 sequence (P47820 36-1313): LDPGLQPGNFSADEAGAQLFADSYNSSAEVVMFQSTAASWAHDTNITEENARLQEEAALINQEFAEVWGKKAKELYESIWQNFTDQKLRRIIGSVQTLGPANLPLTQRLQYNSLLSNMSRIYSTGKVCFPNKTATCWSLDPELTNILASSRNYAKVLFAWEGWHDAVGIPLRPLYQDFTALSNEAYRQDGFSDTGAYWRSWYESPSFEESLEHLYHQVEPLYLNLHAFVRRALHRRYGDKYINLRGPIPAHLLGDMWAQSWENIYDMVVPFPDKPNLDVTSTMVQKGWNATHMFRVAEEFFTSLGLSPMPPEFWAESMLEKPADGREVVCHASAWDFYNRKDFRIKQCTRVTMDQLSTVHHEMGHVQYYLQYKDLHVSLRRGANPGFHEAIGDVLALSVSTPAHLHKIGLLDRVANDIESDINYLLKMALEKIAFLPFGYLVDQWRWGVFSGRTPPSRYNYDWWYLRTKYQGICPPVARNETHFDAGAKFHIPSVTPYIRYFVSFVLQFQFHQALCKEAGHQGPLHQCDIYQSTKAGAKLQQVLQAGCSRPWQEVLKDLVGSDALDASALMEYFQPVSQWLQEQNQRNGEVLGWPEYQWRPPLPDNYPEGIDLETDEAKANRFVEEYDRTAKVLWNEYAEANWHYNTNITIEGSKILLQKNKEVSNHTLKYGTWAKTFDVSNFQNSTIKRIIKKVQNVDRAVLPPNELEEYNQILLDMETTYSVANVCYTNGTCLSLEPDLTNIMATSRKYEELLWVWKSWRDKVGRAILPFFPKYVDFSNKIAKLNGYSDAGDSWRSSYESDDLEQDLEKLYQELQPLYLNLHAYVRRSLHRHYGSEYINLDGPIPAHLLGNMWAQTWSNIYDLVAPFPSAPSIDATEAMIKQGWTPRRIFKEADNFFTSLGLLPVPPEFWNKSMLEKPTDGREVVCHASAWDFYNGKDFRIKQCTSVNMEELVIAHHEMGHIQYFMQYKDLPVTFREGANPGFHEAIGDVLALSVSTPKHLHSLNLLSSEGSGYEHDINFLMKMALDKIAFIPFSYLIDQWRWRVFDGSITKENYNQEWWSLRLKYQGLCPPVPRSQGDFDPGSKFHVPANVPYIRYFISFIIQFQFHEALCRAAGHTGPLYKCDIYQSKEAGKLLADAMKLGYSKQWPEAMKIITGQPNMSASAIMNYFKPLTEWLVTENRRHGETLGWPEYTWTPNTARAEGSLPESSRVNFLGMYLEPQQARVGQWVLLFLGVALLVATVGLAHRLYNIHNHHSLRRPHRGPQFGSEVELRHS
Protocol: Determination of ACE inhibiting activities of medicaments with rat lung
ACE inhibiting activity was examined with the membrane fraction prepared from the lung of rat according to the method of Wu-Wong et al. (Characterization of Endthelin Converting Enzyme in Rat Lung, Junshyum R. Wu-Wong, Gerald P. Budzik, Edward M. Devine and Terry J. Opgenorth, Biochem. Biophys. Res. Commun., 1990, 171, 1291-1296.).
The ACE activity was determined by a modification (wherein the pH of the borate buffer was changed to 8.3) of the Cushman-Cheung method (Spectrophotometric Assay and Properties of the Angiotensin-Converting Enzyme of Rabbit Lung., Cushman D. W. and Cheung H. S., 1971, 20, 1637-1648).
The hippurate liberated from Hippuryl-histidylleucine (Hippuryl-His-Leu (Peptidelnstitute lnc., Japan)) in the presence of ACE was extracted with ethyl acetate and the absorbance at a wavelength of 228 nm was determined.
The ACE inhibiting activity was determined by adding the test compound to the above experiment system in final concentrations of 1, 3, 10, 30, 100, 300 and 1000 nM to form an inhibition curve and determining the concentration at which 50% of the activity was inhibited as IC50. [4S-[4α,7α(R*),12bβ]]-7-[(1-oxo-2(S)-thio-3-phenylpropyl)amino]-1,2,3,4,6,7,8,12b-octahydro-6-oxopyrido[2,1-a] [2]benzazepine-4-carboxylic acid (which is a compound disclosed in Japanese Patent Publication-A No. 4-282382) was used as the control compound.

Compound	IC50 [1] [nM]	IC50 [2] [nM]
CC[C@H](C)[C@H](S)C(=O)N[C@H]1C[C@@H](C)C[C@H]2SC[C@@H](C(=O)O)N2C1=O [Example 9, [3R-(3α,6α,8α,9aβ)]-6-[[(2S,3S)-1-Oxo-2-thio-3-methylpentyl]amino]-8-methyl-octahydro-5-oxothiazolo[3,2-a]azepine-3-carboxylic acid]	13	5.1
CC[C@H](C)[C@H](S)C(=O)N[C@H]1C[C@H](C)C[C@H]2SC[C@@H](C(=O)O)N2C1=O [Example 10, [3R-(3α,6α,8β,9aβ)]-6-[[(2S,3S)-1-Oxo-2-thio-3-methylpentyl]amino]-8-methyl-octahydro-5-oxothiazolo[3,2-a]azepine-3-carboxylic acid]	12	4.3

Compounds with a lower IC50 [1], results first:

IC50 [1] [nM]	IC50 [2] [nM]	Compound
4.3	2.5	CC[C@H](C)[C@H](S)C(=O)N[C@H]1CC[C@H](C)[C@H]2SC[C@@H](C(=O)O)N2C1=O [Example 3, [3R-(3α,6α,9β,9aβ)]-6-[[(2S,3S)-1-Oxo-2-thio-3-methylpentyl]amino]-9-methyl-5-oxo-octahydrothiazolo[3,2-a]azepine-3-carboxylic acid]
6.7	2.2	CC[C@H](C)[C@H](S)C(=O)N[C@H]1CC[C@@H](C)[C@H]2SC[C@@H](C(=O)O)N2C1=O [Example 11, [3R-(3α,6α,9α,9aβ)]-6-[[(2S,3S)-1-Oxo-2-thio-3-methylpentyl]amino]-9-methyl-5-oxo-octahydrothiazolo[3,2-a]azepine-3-carboxylic acid]
1.5	2.5	CC[C@H]1CC[C@H](NC(=O)[C@@H](S)[C@@H](C)CC)C(=O)N2[C@@H]1SC[C@H]2C(=O)O [Example 24, [3R-(3α,6α,9β,9aβ)]-6-[[(2S,3S)-1-Oxo-2-thio-3-methylpentyl]amino]-9-ethyl-5-oxo-octahydrothiazolo[3,2-a]azepine-3-carboxylic acid]
